Where “and” joins values, the source holds several entries; their conditions need not be identical. Equal entries are not always repeated. Toxic doses and inconclusive results are not listed. No stated cut-off is given here; in the data, active means T/C of 150% or more; inactive means T/C below 125%.
Tested on: L1210 leukemia ip in BDF1 mice, survival T/C
Test: NCI In Vivo Anticancer Drug Screen. Data for tumor model L1210 Leukemia (intraperitoneal) in B6D2F1 (BDF1) mice
Details: endpoint: mean survival time, higher = longer survival
Method in brief: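 In this screen, tumor-bearing mice given compound are compared to those given vehicle, and their survival values are reported as a treated-to-control quotient.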

[1] = dose: 100.0 mg/kg/injection, schedule: Q01DX009 (ip), vehicle: Klucel (hydroxypropylcellulose) (HPC)
[2] = dose: 200.0 mg/kg/injection, schedule: Q01DX009 (ip), vehicle: Klucel (hydroxypropylcellulose) (HPC)
[3] = dose: 100.0 mg/kg/injection, schedule: Q04DX003 (ip), vehicle: saline with Tween-80
[4] = dose: 200.0 mg/kg/injection, schedule: Q04DX003 (ip), vehicle: saline with Tween-80
[5] = dose: 400.0 mg/kg/injection, schedule: Q04DX003 (ip), vehicle: saline with Tween-80
[6] = dose: 100.0 mg/kg/injection, schedule: Q01DX009 (ip), vehicle: saline with Tween-80
[7] = dose: 200.0 mg/kg/injection, schedule: Q01DX009 (ip), vehicle: saline with Tween-80
[8] = dose: 400.0 mg/kg/injection, schedule: Q01DX009 (ip), vehicle: saline with Tween-80
[9] = dose: 100.0 mg/kg/injection, schedule: Q01DX009 (ip), vehicle: saline
[10] = dose: 100.0 mg/kg/injection, schedule: Q04DX003 (ip), vehicle: saline
[11] = dose: 200.0 mg/kg/injection, schedule: Q01DX009 (ip), vehicle: saline
[12] = dose: 200.0 mg/kg/injection, schedule: Q04DX003 (ip), vehicle: saline
[13] = dose: 400.0 mg/kg/injection, schedule: Q04DX003 (ip), vehicle: saline
[14] = dose: 100.0 mg/kg/injection, schedule: Q01DX001 (ip), vehicle: saline
[15] = dose: 200.0 mg/kg/injection, schedule: Q01DX001 (ip), vehicle: saline
[16] = dose: 400.0 mg/kg/injection, schedule: Q01DX001 (ip), vehicle: saline
[17] = dose: 400.0 mg/kg/injection, schedule: Q01DX009 (ip), vehicle: saline
[18] = dose: 400.0 mg/kg/injection, schedule: Q01DX009 (ip), vehicle: Klucel (hydroxypropylcellulose) (HPC)
[19] = dose: 100.0 mg/kg/injection, schedule: Q04DX003 (ip), vehicle: Klucel (hydroxypropylcellulose) (HPC)

Measured: T/C

CCCC(C)OP(=O)(OCC)OCC (centres undefined)
inactive: [1] 94 % of control | [2] 100 % of control

Nc1cccnc1
inactive: dose: 5.0 mg/kg/injection, schedule: Q01DX009 (ip), vehicle: saline 104 % of control | dose: 10.0 mg/kg/injection, schedule: Q01DX009 (ip), vehicle: saline 95 % of control | dose: 20.0 mg/kg/injection, schedule: Q01DX009 (ip), vehicle: saline 98 % of control

CC(=O)OCC1OC(Oc2ccc([N+](=O)[O-])cc2[N+](=O)[O-])C(OC(C)=O)C(OC(C)=O)C1OC(C)=O (centres undefined)
inactive: [3] 100 % of control | [4] 91 % of control | [5] 91 % of control

CCOP(=S)(OCC)Oc1cccc(NC(=O)CC)c1
inactive: [6] 102 % of control | [7] 104 % of control | [8] 93 % of control

CC(=O)Nc1cccc2c1CCCC2
inactive: dose: 100.0 mg/kg/injection, schedule: Q01DX009 (ip), vehicle: gum acacia 98 % of control | dose: 100.0 mg/kg/injection, schedule: Q04DX003 (ip), vehicle: gum acacia 95 % of control | dose: 200.0 mg/kg/injection, schedule: Q01DX009 (ip), vehicle: gum acacia 97 % of control | dose: 200.0 mg/kg/injection, schedule: Q04DX003 (ip), vehicle: gum acacia 96 % of control | dose: 400.0 mg/kg/injection, schedule: Q01DX009 (ip), vehicle: gum acacia 103 % of control | dose: 400.0 mg/kg/injection, schedule: Q04DX003 (ip), vehicle: gum acacia 95 % of control

CC1=C(C)C(=O)c2c(OC(=O)c3ccccc3)ccc(OC(=O)c3ccccc3)c2C1=O
inactive: dose: 12.5 mg/kg/injection, schedule: Q01DX009 (ip), vehicle: saline 100 % of control | dose: 25.0 mg/kg/injection, schedule: Q01DX009 (ip), vehicle: saline 99 % of control | dose: 50.0 mg/kg/injection, schedule: Q01DX009 (ip), vehicle: saline 92 % of control | dose: 50.0 mg/kg/injection, schedule: Q04DX003 (ip), vehicle: saline 95 % of control | [9] 92 % of control | [10] 98 % of control and 91 % of control | [11] 87 % of control | [12] 90 % of control | [13] 92 % of control and 91 % of control

CS(=O)(=O)Oc1ccc2c(c1)CCC2
inactive: dose: 100.0 mg/kg/injection, schedule: Q01DX001 (ip), vehicle: carboxymethylcellulose (CMC) 104 % of control | dose: 200.0 mg/kg/injection, schedule: Q01DX001 (ip), vehicle: carboxymethylcellulose (CMC) 101 % of control | dose: 400.0 mg/kg/injection, schedule: Q01DX001 (ip), vehicle: carboxymethylcellulose (CMC) 95 % of control

O=[N+]([O-])c1ccc(OS(=O)(=O)CS(=O)(=O)Oc2ccc([N+](=O)[O-])cc2)cc1
inactive: [14] 109 % of control | [15] 114 % of control

C1CCC2C(C1)CCCC2C1C2C3CCCCC3CCC2C2CCC3CCCCC3C21 (centres undefined)
inactive: [3] 91 % of control | [4] 91 % of control | [5] 88 % of control

CC(C)C(C)(C)NC(N)=O
inactive: [14] 102 % of control | [15] 104 % of control | [16] 104 % of control

CCN1/C(=C/C(C)=C/c2[se]c3ccc(C)cc3[n+]2CC)[Se]c2ccc(C)cc21
inactive: dose: 2.0 mg/kg/injection, schedule: Q01DX001 (ip), vehicle: other 109 % of control | dose: 4.0 mg/kg/injection, schedule: Q01DX001 (ip), vehicle: other 114 % of control

CCCC/C(=N/Nc1ccc([N+](=O)[O-])cc1[N+](=O)[O-])c1ccc(Cl)cc1
inactive: [14] 98 % of control | [15] 88 % of control | [16] 102 % of control

C1CCC2C(C1)CCC1OC12 (centres undefined)
inactive: [9] 112 % of control | [11] 102 % of control | [17] 107 % of control

C1OC2CC3CC1C2C3 (centres undefined)
inactive: dose: 10.0 mg/kg/injection, schedule: Q01DX001 (ip), vehicle: acetone 107 % of control | dose: 20.0 mg/kg/injection, schedule: Q01DX001 (ip), vehicle: acetone 104 % of control | dose: 40.0 mg/kg/injection, schedule: Q01DX001 (ip), vehicle: acetone 98 % of control

Cc1cc(C)c(O)c(CN(Cc2cc(C)cc(C)c2O)C2CCCCC2)c1
inactive: [14] 96 % of control | [15] 88 % of control | [16] 88 % of control

C=C1C(=O)C2(C)OC2(C)C1C(=O)O (centres undefined)
inactive: dose: 1.25 mg/kg/injection, schedule: Q01DX009 (ip), vehicle: Klucel (hydroxypropylcellulose) (HPC) 94 % of control | dose: 2.5 mg/kg/injection, schedule: Q01DX009 (ip), vehicle: Klucel (hydroxypropylcellulose) (HPC) 100 % of control | dose: 5.0 mg/kg/injection, schedule: Q01DX009 (ip), vehicle: Klucel (hydroxypropylcellulose) (HPC) 105 % of control | dose: 10.0 mg/kg/injection, schedule: Q01DX009 (ip), vehicle: Klucel (hydroxypropylcellulose) (HPC) 101 % of control

O=NN(CCI)C(=O)NCCI
inactive: dose: 18.75 mg/kg/injection, schedule: Q01DX001 (ip), vehicle: carboxymethylcellulose (CMC) 96 % of control | dose: 37.5 mg/kg/injection, schedule: Q01DX001 (ip), vehicle: carboxymethylcellulose (CMC) 98 % of control | dose: 50.0 mg/kg/injection, schedule: Q01DX001 (ip), vehicle: carboxymethylcellulose (CMC) 96 % of control | dose: 75.0 mg/kg/injection, schedule: Q01DX001 (ip), vehicle: carboxymethylcellulose (CMC) 100 % of control | [14] 103 % of control | [15] 110 % of control

O=C(CSCc1ccc([N+](=O)[O-])cc1)c1ccc(Br)cc1
inactive: [14] 92 % of control | [15] 95 % of control | [16] 92 % of control

Clc1ccc2nc(-c3ccc(Cl)c(Cl)c3)cc(-c3ccccc3)c2c1
inactive: [1] 94 % of control | [2] 86 % of control | [18] 97 % of control

N#CCCN1CCOCC1
inactive: [9] 93 % of control | [10] 97 % of control | [11] 97 % of control | [12] 95 % of control | [17] 95 % of control | [13] 105 % of control

COC(=O)C1=C2c3ccccc3NC(=O)N2NC1C(=O)OC (centres undefined)
inactive: dose: 50.0 mg/kg/injection, schedule: Q04DX002 (ip), vehicle: saline 108 % of control | dose: 100.0 mg/kg/injection, schedule: Q04DX002 (ip), vehicle: saline 90 % of control | dose: 200.0 mg/kg/injection, schedule: Q04DX002 (ip), vehicle: saline 90 % of control

O=C1OC(c2ccccc2)(c2ccccc2)c2cccc3cccc1c23
inactive: [6] 101 % of control | [7] 95 % of control | [8] 91 % of control

O=c1[nH]cnc2c1ncn2C1OC(CF)C(O)C1O (centres undefined)
inactive: [9] 101 % of control | dose: 100.0 mg/kg/injection, schedule: Q04DX003 (ip), vehicle: other 112 % of control | [11] 101 % of control | dose: 200.0 mg/kg/injection, schedule: Q04DX003 (ip), vehicle: other 103 % of control | [17] 101 % of control | dose: 400.0 mg/kg/injection, schedule: Q04DX003 (ip), vehicle: other 98 % of control

BrC1CC/C=C\CCC1Br (centres undefined)
inactive: [1] 93 % of control | [19] 105 % of control | [2] 87 % of control | dose: 200.0 mg/kg/injection, schedule: Q04DX003 (ip), vehicle: Klucel (hydroxypropylcellulose) (HPC) 91 % of control | [18] 93 % of control | dose: 400.0 mg/kg/injection, schedule: Q04DX003 (ip), vehicle: Klucel (hydroxypropylcellulose) (HPC) 109 % of control

CC1CCc2[nH]c3ccc4ccccc4c3c2C1 (centres undefined)
inactive: dose: 25.0 mg/kg/injection, schedule: Q04DX003 (ip), vehicle: Klucel (hydroxypropylcellulose) (HPC) 98 % of control | dose: 50.0 mg/kg/injection, schedule: Q04DX003 (ip), vehicle: Klucel (hydroxypropylcellulose) (HPC) 95 % of control | [19] 93 % of control

Nc1ccc(C(=O)C(=O)c2ccc(N)cc2)cc1
inactive: dose: 75.0 mg/kg/injection, schedule: Q01DX001 (ip), vehicle: acetone 102 % of control | dose: 150.0 mg/kg/injection, schedule: Q01DX001 (ip), vehicle: acetone 94 % of control

CCOC(=O)c1cnc(SC)nc1NCc1ccc(Cl)c(Cl)c1
inactive: [3] 94 % of control | [4] 102 % of control | [5] 96 % of control
